Results published in paper doi:10.1101/2025.04.28.650843v1, “The structure of phycobilisome with a bicylindrical core from the cyanobacterium Synechococcus elongatus PCC 7942” (biorxiv, 2025).

How the values were obtained:
Assay in all cases: cryo-EM structure of phycobilisome, […] Å
Format in all cases: binding
ApcD = molecular target: T1, ApcD (Synechococcus elongatus, UniProt Q31RP7); details: covalent; terminal emitter; pH 7.0
T1 construct: gene Synpcc7942_0240; native subunit in phycobilisome core (trimer 4), glutaraldehyde cross-linked
T1 sequence (Q31RP7 1-163): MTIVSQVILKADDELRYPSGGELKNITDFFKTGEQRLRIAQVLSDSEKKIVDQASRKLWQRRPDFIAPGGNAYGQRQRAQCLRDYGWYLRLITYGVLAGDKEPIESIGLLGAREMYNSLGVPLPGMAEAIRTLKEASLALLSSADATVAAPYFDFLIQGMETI

ApcF = molecular target: T2, ApcF (Synechococcus elongatus, UniProt O50209); details: covalent; pH 7.0
T2 construct: native subunit in phycobilisome core, glutaraldehyde cross-linked
T2 sequence (O50209 1-169): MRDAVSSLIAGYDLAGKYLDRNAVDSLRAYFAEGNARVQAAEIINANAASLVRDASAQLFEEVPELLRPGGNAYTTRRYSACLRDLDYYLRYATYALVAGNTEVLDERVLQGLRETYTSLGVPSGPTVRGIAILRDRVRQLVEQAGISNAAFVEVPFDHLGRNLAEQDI

ApcE (LCM), αApcE domain = molecular target: T3, ApcE (LCM), αApcE domain (Synechococcus elongatus, UniProt Q31RF9); details: covalent, terminal emitter, pH 7.0
T3 construct: gene Synpcc7942_0328; native ApcE with two REP domains in phycobilisome core (trimer 3), glutaraldehyde cross-linked; bilin in N-terminal αApcE domain
T3 sequence (Q31RF9 1-705): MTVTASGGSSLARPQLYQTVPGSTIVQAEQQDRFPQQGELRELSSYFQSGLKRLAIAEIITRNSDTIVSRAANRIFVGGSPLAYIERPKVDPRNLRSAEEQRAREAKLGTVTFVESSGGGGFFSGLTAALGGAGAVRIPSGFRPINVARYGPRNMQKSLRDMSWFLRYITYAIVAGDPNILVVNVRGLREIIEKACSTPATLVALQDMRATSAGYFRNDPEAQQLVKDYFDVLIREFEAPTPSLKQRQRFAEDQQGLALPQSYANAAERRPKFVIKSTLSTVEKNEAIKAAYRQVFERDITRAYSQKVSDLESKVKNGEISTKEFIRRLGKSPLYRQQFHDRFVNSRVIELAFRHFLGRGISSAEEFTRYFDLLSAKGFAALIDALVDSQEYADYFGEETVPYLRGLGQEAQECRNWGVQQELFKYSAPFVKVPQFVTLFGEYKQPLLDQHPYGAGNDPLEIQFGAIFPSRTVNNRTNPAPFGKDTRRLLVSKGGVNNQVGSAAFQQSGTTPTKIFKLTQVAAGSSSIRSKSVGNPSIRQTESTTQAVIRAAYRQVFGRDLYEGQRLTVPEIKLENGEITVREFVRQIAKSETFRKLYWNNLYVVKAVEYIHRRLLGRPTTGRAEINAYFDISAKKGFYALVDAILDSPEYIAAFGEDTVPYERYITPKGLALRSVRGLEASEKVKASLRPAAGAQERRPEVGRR

## C/C=C1/C(=C/C2=NC(=C\c3[nH]c(/C=C4\NC(=O)C(CC)=C4C)c(C)c3CCC(=O)O)/C(CCC(=O)O)=C2C)NC(=O)[C@@H]1C [phycocyanobilin]
ApcD
  cryo-EM structure of phycobilisome, 2.98 Å: terminal emitters (ApcD and the α^ApcE domain) are deduced based on the shortest distances
ApcF
  cryo-EM structure of phycobilisome, 2.98 Å: Bilins in rods and core are painted the same colors as the corresponding proteins
ApcE (LCM), αApcE domain
  cryo-EM structure of phycobilisome, 2.98 Å: terminal emitters (ApcD and the α^ApcE domain) are deduced based on the shortest distances
